Marks after values point to notes of the source that are not given here.
How the values were obtained:
pBtk, pPLCy2 and pAkt = conditions: alone or in co-culture with M2 cells
Mino and Jekol cells = test: chemokine and cytokine secretion of MCL cell lines after BCR activation or in stromal co-culture; type: cell-based, human; conditions: following BCR activation or in co-culture
DHL-10 = test: growth inhibition by PCI-32765, DHL-10; type: cell-based; conditions: Homo sapiens; DHL-10, DLBCL, GCB
LY19 = test: growth inhibition by PCI-32765, LY19; type: cell-based; conditions: Homo sapiens; LY19, DLBCL, GCB (CARD11)
primary MCL = test: actin polymerization of primary MCL in co-culture; conditions: 100 nM (p<0.001)
[1] = system: relapsed/refractory subjects with MCL; test: phase II study of PCI-32765 in relapsed/refractory MCL; conditions: for Discontinuation: Adverse event / Discontinuation: Disease Progression / Death on study: 560 mg/day
LY3 = test: growth inhibition by PCI-32765, LY3; type: cell-based; conditions: Homo sapiens; LY3, DLBCL, ABC (CARD11)
DoHH2 cells = test: Alamar blue assay in DoHH2 cells; type: cell-based
Jekol cells = test: adhesion assay, chemokine-mediated, Jekol; conditions: Homo sapiens, read-out: inhibition of adhesion to VCAM1 or fibronectin following CXCL12 or CXCL13 activations
Jeko-1 = test: growth inhibition by PCI-32765, Jeko-1; type: cell-based; conditions: Homo sapiens; Jeko-1, Mantle cell
Jekol and HBL1 cells = test: adhesion assay, anti-IgM stimulated; conditions: Homo sapiens, HBL1, read-out: inhibition of anti-IgM stimulated adhesion onto fibronectin or VCAM1
Mino = test: growth inhibition by PCI-32765, Mino; type: cell-based; conditions: Homo sapiens, Mantle cell
[2] = system: CD19+CD5+ cells of MCL patients; test: flow cytometry phenotyping of PBMCs of MCL patients before (D1) and after one week (D8) of ibrutinib; type: in vivo, human
Method: Blood was drawn from MCL patients enrolled in PCYC-04753 or PCYC-1104 studies in the US in accordance with GCP guidelines provided by ICH and principles of the Declaration of Helsinki with informed consent and in compliance with the protocols approved by the relevant Institutional Review Board(s). The whole blood samples were drawn into sodium heparin CPT tubes (BD), mixed for 5 min then spun at 1500 rcf for 20 min at the collection sites. The samples were shipped overnight to Pharmacyclics with 36 hrs. In a laminar flow hood, the PBMCs were removed from the top layer of the tubes, washed with PBS, and frozen in 90% FBS+10% DMSO (Sigma, St Louis, Mo.) in liquid nitrogen until use.
Frozen PBMCs were thawed in a 37° C. water bath, resuspended in RPMI+10% FBS, and recovered in a 37° C., 5% CO2 incubator in 5 ml polypropylene tubes (BD-Falcon) for 2 hours before phenotyping analysis. The PBMCs were washed with PBS+2% FBS, pelleted and resuspended in PBS+2% FBS containing phenotyping surface antibodies. All staining cocktails were run in duplicate tubes. The cells were stained for 30 minutes, washed with PBS, pelleted at 1300 rpm for 5 min, then fixed in PBS+1.6% paraformaldehyde (Electron Microscopy Services, Hatfield, Pa.).
BD FACS Canto II (BD, San Jose, Calif.) was used for all flow cytometry collection. The instrument was maintained according to manufacturer's recommendations. CS&T beads (BD) are used daily for baseline and reproducibility measurements according to manufacturer's instructions. Phosphoflow assays were stained and performed as described. The above antibodies were used with BD CompBead Plus to establish compensation settings and antibody staining consistency. 10,000 CD19^+ cells were collected from each staining sample. The data was analyzed and quantified using FlowJo7.6 (Tree Star, Ashland, Oreg.).

Mino cells [3] = test: adhesion assay, chemokine-mediated, Mino; conditions: Homo sapiens, read-out: inhibition of adhesion to VCAM1 or fibronectin following CXCL12 or CXCL13 activations
WSU-NHL = test: growth inhibition by PCI-32765, WSU-NHL; type: cell-based; conditions: Homo sapiens, FL-transformed
[4] = system: pBtk (Y223, Y551), pPLCy2; conditions: primary MCL and normal B cells
primary MCL cells [5] = test: adhesion of primary MCL cells; conditions: Homo sapiens, read-out: inhibition of CXCL12 or CXCL13 activated adhesion to VCAM1 and BCR stimulated adhesion to fibronectin
clinical = conditions: human, plasma; for AUC(0-inf): Mean (CV) AUC0-∞; for AUC(0-t): Mean AUC0-24h, steady state (Day 8)
Mino cells [6] = test: actin polymerization in Mino cells (phalloidin); type: cell-based, human; conditions: 10 and 100 nM (p<0.001)
Ramos = test: growth inhibition by PCI-32765, Ramos; type: cell-based; conditions: Homo sapiens, Burkitt's
primary MCL cells [7] = test: co-culture assay: pseudoemperipoliesis of primary MCL cells with M2 stromal cells; type: cell-based, human; conditions: 100 nM

SMILES: C=CC(=O)N1CCC[C@@H](n2nc(-c3ccc(Oc4ccccc4)cc3)c3c(N)ncnc32)C1 [PCI-32765, (R)-1-(3-(4-amino-3-(4-phenoxyphenyl)-1H-pyrazolo[3,4-d]pyrimidin-1-yl)piperidin-1-yl)prop-2-en-1-one]
- pBtk, pPLCy2 and pAkt in Mino cells (pBtk, pPLCy2 and pAkt): dose-dependently inhibited
- production of human IL-10, MDC, MIP-1α, MIP-1β, TNFα, CCL17 and CCL21 (Mino and Jekol cells): dose dependently and potently suppressed
- GI50 (DHL-10): 3.7 µM
- GI50 (LY19): > 10 µM
- actin polymerization of primary MCL in co-culture (primary MCL): suppressed
- Discontinuation: Adverse event ([1]; Bortezomib-Exposed (N = 27)): 1 (4) # (%)
- Discontinuation: Disease Progression ([1]; Bortezomib-Exposed (N = 27)): 6 (22) # (%)
- Death on study ([1]; Bortezomib-Exposed (N = 27), pneumonia): 1 (4) # (%)
- Death on study ([1]; Bortezomib-Naïve (N = 41)): 0 (0) # (%)
- Discontinuation: Adverse event ([1]; Bortezomib-Naïve (N = 41)): 2 (5) # (%)
- Discontinuation: Disease Progression ([1]; Bortezomib-Naïve (N = 41)): 7 (17) # (%)
- Death on study ([1]; Total (N = 68)): 1 (2) # (%)
- Discontinuation: Adverse event ([1]; Total (N = 68)): 3 (4) # (%)
- Discontinuation: Disease Progression ([1]; Total (N = 68)): 13 (19) # (%)
- myelosuppression ([1]; during the study): No significant myelosuppression
- GI50 (LY3): > 10 µM
- sensitivity of DOHH2 cell line (DoHH2 cells): moderately sensitive
- inhibition at 0.1 µM (Jekol cells): 20 to 30%
- GI50 (Jeko-1): > 10 µM
- inhibition at 0.1 µM (Jekol and HBL1 cells): 50 to 70%
- GI50 (Mino): 0.15 µM
- absolute count and percentage of CD19+CD5+ cells in the lymphocyte population ([2]; after one week of ibrutinib treatment, p<0.05): significantly increased
- intracellular Ki67 expression ([2]; after treatment, p<0.05): significantly reduced
- pErk expression in CD20+CD5+ cells ([2]; differences not statistically significant): reduced
- surface expression of CXCR4 in the CD19+CD5+ population ([2]; following one week of drug treatment, p<0.05): significantly reduced
- CD38+ cells among CD19+CD5+ cells ([2]; following treatment, p<0.01): significantly decreased
- CD19+CD3− population of gated lymphocytes ([2]; illustrative patient, after one week of treatment, before 9.29%): 63%
- CD19+CD5+ population ([2]; illustrative patient, after one week of treatment, before 84.4%): 98.8%
- inhibition at 0.1 µM (Mino cells [3]): 50 to 70%
- GI50 (WSU-NHL): 0.12 µM
- concentrations inhibiting pBtk (Y223, Y551) and reducing pPLCy2 (Y759, Y1217) [4]: ≥ 10 nM
- inhibition at 0.1 µM (primary MCL cells [5]): 10 to 20%
- AUC(0-inf) (clinical; 1.25 mg/kg, Day 1, cohort 1, 1.25 mg/kg): 181 ng·h/mL
- Tmax (clinical; 1.25 mg/kg, Mean (CV) Tmax, Day 1, cohort 1, 1.25 mg/kg): 1 h
- AUC(0-t) (clinical; 1.25 mg/kg, cohort 1, 1.25 mg/kg): 301 ng·h/mL
- AUC(0-inf) (clinical; 5 mg/kg, Day 1, cohort 3, 5 mg/kg): 419 ng·h/mL
- Tmax (clinical; 5 mg/kg, Mean (CV) Tmax, Day 1, cohort 3, 5 mg/kg): 2.3 h
- AUC(0-t) (clinical; 5 mg/kg, cohort 3, 5 mg/kg): 1580 ng·h/mL
- AUC(0-inf) (clinical; 8.3 mg/kg, Day 1, cohort 4, 8.3 mg/kg): 923 ng·h/mL
- AUC(0-inf) (clinical; 8.3 mg/kg, Day 1, cohort CD (continuous dosing), 8.3 mg/kg): 1030 ng·h/mL
- Tmax (clinical; 8.3 mg/kg, Mean (CV) Tmax, Day 1, cohort 4, 8.3 mg/kg): 1.8 h
- Tmax (clinical; 8.3 mg/kg, Mean (CV) Tmax, Day 1, cohort CD (continuous dosing), 8.3 mg/kg): 2.2 h
- AUC(0-t) (clinical; 8.3 mg/kg, cohort 4, 8.3 mg/kg): 2330 ng·h/mL
- AUC(0-t) (clinical; 8.3 mg/kg, cohort CD (continuous dosing), 8.3 mg/kg): 1540 ng·h/mL
- AUC(0-inf) (clinical; 12.5 mg/kg, Day 1, cohort 5, 12.5 mg/kg): 1550 ng·h/mL
- Tmax (clinical; 12.5 mg/kg, Mean (CV) Tmax, Day 1, cohort 5, 12.5 mg/kg): 1.7 h
- AUC(0-t) (clinical; 12.5 mg/kg, cohort 5, 12.5 mg/kg): 2940 ng·h/mL
- AUC(0-inf) (clinical; 560 mg, Day 1, Fixed cohort, 560 mg fixed dose): 749 ng·h/mL
- Tmax (clinical; 560 mg, Mean (CV) Tmax, Day 1, Fixed cohort, 560 mg fixed dose): 1.8 h
- AUC(0-t) (clinical; 560 mg, Fixed cohort, 560 mg fixed dose): 1550 ng·h/mL
- Tmax (clinical; […], Mean (CV) Tmax, Day 1, cohort 2, […]): 2.1 h
- Tmax (clinical; time to maximum plasma concentration (Tmax), range over dose levels): 1 to 2.3 h
- CXCL12-increased cortical actin of Mino cells (Mino cells [6]): dose-dependently and significantly inhibited
- GI50 (Ramos): 5.5 µM
- pseudoemperipoliesis of primary MCL (hCD19+ cells) (primary MCL cells [7]): inhibited
